Assay results reported in US20060069132A1, “Azolecarboxamide herbicides” (priority 2004, published 2006).
Read-outs that look alike come from different tables or passages of the source.

How the values were obtained:
[1] = tested on: barnyardgrass; experiment: Test B pre-/postemergence herbicide test; assay type: in vivo, Echinochloa crus-galli; details: for pest or weed control at 125 g/ha / pest or weed control at 500 g/ha: Echinochloa crus-galli
Procedure, shortened: (§1)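 Seeds were planted and treated preemergence with compounds formulated in a non-phytotoxic solvent mixture containing surfactant, while plants at the 1- to 4-leaf stage (2 to 18 cm) received postemergence sprays. Flooded paddy plants were grown to the 2-leaf stage. After 13 to 15 days in a greenhouse, injury was visually rated 0–100 against untreated controls.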

[2] = tested on: johnsongrass; experiment: Test C pre-/postemergence herbicide test; assay type: in vivo, Sorghum halepense
Procedure, shortened: (§2)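 Pre/post spray; non-phytotoxic solvent + surfactant. Post-timing 1–4 leaves, 2–18 cm. Read-out: visual % control vs untreated, day 12–14, greenhouse.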

[3] = tested on: woolly cupgrass; experiment: Test C pre-/postemergence herbicide test; assay type: in vivo, Eriochloa villosa
Procedure, shortened: as §2

[4] = tested on: lambsquarters; experiment: Test C pre-/postemergence herbicide test; assay type: in vivo, Chenopodium album
Procedure, shortened: as §2

[5] = tested on: large crabgrass; experiment: Test B pre-/postemergence herbicide test; assay type: in vivo, Digitaria sanguinalis; details: for pest or weed control at 125 g/ha / pest or weed control at 500 g/ha: Digitaria sanguinalis
Procedure, shortened: as §1

[6] = 125 g ai/ha, 0 is no effect, 100 is complete control, preemergence
[7] = Postemergence, 125 g ai/ha, scale 0 (no effect) to 100 (complete control)
[8] = Postemergence, 500 g ai/ha, scale 0 (no effect) to 100 (complete control)
[9] = 62 g ai/ha, preemergence, scale 0 to 100
[10] = 250 g ai/ha, scale 0-100, preemergence
[11] = 500 g ai/ha, scale 0 to 100 (0 no effect, 100 complete control), visual, 12 to 14 days, preemergence
[12] = postemergence, 125 g ai/ha, scale 0 to 100
[13] = 125 g ai/ha, visual rating, scale 0 (no effect) to 100 (complete control), postemergence
[14] = postemergence, 500 g ai/ha, scale 0 to 100, 0 is no effect, 100 is complete control
[15] = Postemergence, 500 g ai/ha, visual rating after 13 to 15 days, scale 0 (no effect) to 100 (complete control)
[16] = Preemergence, 500 g ai/ha, scale 0 to 100
[17] = postemergence, 125 g ai/ha, visual rating, scale 0 (no effect) to 100 (complete control)
[18] = preemergence, 125 g ai/ha, 0 to 100 scale, 0 is no effect, 100 is complete control
[19] = 125 g ai/ha, scale 0 (no effect) to 100 (complete control), visual, 12 to 14 days, preemergence
[20] = 250 g ai/ha, scale 0 to 100 (0 no effect, 100 complete control), visual, 12 to 14 days, preemergence
[21] = Preemergence, 500 g ai/ha, scale 0 to 100, 0 no effect, 100 complete control

SMILES | Plant response rating (0 to 100 scale), Barnyardgrass [1, 6] | Barnyardgrass plant response rating [1, 7] | Barnyardgrass plant response rating [1, 8] | Plant response rating, Johnsongrass [2, 9] | Plant response rating (0 = no effect, 100 = complete control), Johnsongrass ([2]; 125 g ai/ha, preemergence) | Plant response rating, Johnsongrass [2, 10] | Plant response rating, Johnsongrass [2, 11] | Plant response rating, Cupgrass, Woolly [3, 9] | Plant response rating (0 = no effect, 100 = complete control), Cupgrass, Woolly ([3]; 125 g ai/ha, preemergence) | Plant response rating, Cupgrass, Woolly [3, 10] | Plant response rating, Cupgrass, Woolly [3, 11] | Plant response rating, Lambsquarters [4, 9] | Plant response rating, Lambsquarters [4, 10] | Plant response rating, Lambsquarters [4, 11] | Plant response rating (0 to 100 scale), Crabgrass, Large [5, 6] | Crabgrass, Large plant response rating [5, 8] | Crabgrass, Large plant response rating [5, 12] | Plant response rating (0 = no effect, 100 = complete control), Lambsquarters ([4]; 125 g ai/ha, preemergence) | Barnyardgrass plant response rating [1, 13] | Barnyardgrass plant response rating [1, 14] | further results
CCc1nn(C(C)C)nc1C(=O)Nc1cccc(C(=S)N(C)C)c1 [Compound 409] | 90 | 0 | 0 | 35 | 80 | 95 | 95 | 40 | 55 | 80 | 80 | 100 | 100 | 100 | 90 | 10 | 0 |  |  |  | 
Cc1nn(C(C)(C)C)nc1C(=O)Nc1cccc(C(=S)N(C)C)c1 [Compound 419] | 100 | 20 | 50 | 100 | 100 | 100 | 100 | 0 | 15 | 45 | 65 | 95 | 100 | 100 | 100 | 40 | 30 | 95 |  |  | 
CCNC(=O)c1cccc(NC(=O)c2nn(C(C)(C)C)cc2Br)c1 [Compound 221, 4-bromo-1-(1,1-dimethylethyl)-N-[3-[(ethylamino)carbonyl]phenyl]-1H-pyrazole-3-carboxamide] |  |  |  |  |  |  |  |  |  |  |  |  |  |  |  |  |  |  |  |  | pest or weed control at 125 g/ha ([1]; post-emergence, postemergence, 125 g ai/ha, visual rating, scale 0 (no effect) to 100 (complete control), read-out: Barnyardgrass plant response rating): 0%; pest or weed control at 500 g/ha ([1]; post-emergence, postemergence, 500 g ai/ha, visual rating, scale 0 (no effect) to 100 (complete control), read-out: Barnyardgrass plant response rating): 10%; pest or weed control at 125 g/ha ([1]; pre-emergence, 125 g ai/ha, 0 = no effect, 100 = complete control, read-out: Barnyardgrass plant response rating (0 to 100 scale)): 0%; pest or weed control at 500 g/ha ([1]; pre-emergence, 500 g ai/ha, visual rating, 0 = no effect, 100 = complete control, read-out: Plant response rating, Barnyardgrass): 90%; pest or weed control at 62 g/ha ([2]; Sorghum halepense, pre-emergence, 62 g ai/ha, preemergence, scale 0 to 100, read-out: Plant response rating, Johnsongrass): 0%; pest or weed control at 125 g/ha ([2]; Sorghum halepense, pre-emergence, 125 g ai/ha, scale 0 (no effect) to 100 (complete control), visual, 12 to 14 days, read-out: Plant response rating, Johnsongrass): 0%; pest or weed control at 250 g/ha ([2]; Sorghum halepense, pre-emergence, 250 g ai/ha, scale 0-100, read-out: Plant response rating, Johnsongrass): 10%; pest or weed control at 500 g/ha ([2]; Sorghum halepense, pre-emergence, 500 g ai/ha, scale 0 to 100 (0 no effect, 100 complete control), visual, 12 to 14 days, read-out: Plant response rating, Johnsongrass): 80%; pest or weed control at 62 g/ha ([3]; Eriochloa villosa, pre-emergence, 312 h, 62 g ai/ha, preemergence, scale 0 to 100, read-out: Plant response rating, Cupgrass, Woolly): 0%; pest or weed control at 125 g/ha ([3]; Eriochloa villosa, pre-emergence, 312 h, 125 g ai/ha, scale 0 (no effect) to 100 (complete control), visual, 12 to 14 days, read-out: Plant response rating, Cupgrass, Woolly): 0%; pest or weed control at 250 g/ha ([3]; Eriochloa villosa, pre-emergence, 312 h, 250 g ai/ha, scale 0-100, read-out: Plant response rating, Cupgrass, Woolly): 0%; pest or weed control at 500 g/ha ([3]; Eriochloa villosa, pre-emergence, 312 h, 500 g ai/ha, scale 0 to 100 (0 no effect, 100 complete control), visual, 12 to 14 days, read-out: Plant response rating, Cupgrass, Woolly): 10%; pest or weed control at 62 g/ha ([4]; Chenopodium album, pre-emergence, 62 g ai/ha, preemergence, scale 0 to 100, read-out: Plant response rating, Lambsquarters): 0%; pest or weed control at 125 g/ha ([4]; Chenopodium album, pre-emergence, 125 g ai/ha, scale 0 (no effect) to 100 (complete control), visual, 12 to 14 days, read-out: Plant response rating, Lambsquarters): 20%; pest or weed control at 250 g/ha ([4]; Chenopodium album, pre-emergence, 250 g ai/ha, scale 0-100, read-out: Plant response rating, Lambsquarters): 90%; pest or weed control at 500 g/ha ([4]; Chenopodium album, pre-emergence, 500 g ai/ha, scale 0 to 100 (0 no effect, 100 complete control), visual, 12 to 14 days, read-out: Plant response rating, Lambsquarters): 100%; pest or weed control at 125 g/ha ([5]; post-emergence, postemergence, 125 g ai/ha, visual rating, scale 0 (no effect) to 100 (complete control), read-out: Crabgrass, Large plant response rating): 0%; pest or weed control at 500 g/ha ([5]; post-emergence, postemergence, 500 g ai/ha, visual rating, scale 0 (no effect) to 100 (complete control), read-out: Crabgrass, Large plant response rating): 10%; pest or weed control at 125 g/ha ([5]; pre-emergence, 125 g ai/ha, 0 = no effect, 100 = complete control, read-out: Crabgrass, Large plant response rating (0 to 100 scale)): 80%; pest or weed control at 500 g/ha ([5]; pre-emergence, 500 g ai/ha, visual rating, 0 = no effect, 100 = complete control, read-out: Plant response rating, Crabgrass, Large): 100%
C=CCNC(=O)c1cccc(NC(=O)c2nn(C(C)C)nc2CC)c1 [Compound 382] | 80 |  |  | 70 | 95 | 100 | 100 | 0 | 0 | 20 | 40 | 90 | 100 | 100 | 80 |  |  | 100 | 0 | 0 | Crabgrass, Large plant response rating [5, 13]: 10; Crabgrass, Large plant response rating [5, 14]: 10
CCc1nn(C(C)C)nc1C(=O)Nc1cccc(C(=O)N(C)CC)c1 [Compound 386] | 90 |  |  | 85 | 100 | 100 | 100 | 50 | 90 | 95 | 95 | 100 | 100 | 100 | 100 |  |  | 100 | 0 | 10 | Crabgrass, Large plant response rating [5, 13]: 10; Crabgrass, Large plant response rating [5, 14]: 20
C=CCn1nc(C(C)(C)C)cc1C(=O)Nc1cccc(C(=O)NCC)c1 [Compound 56] |  |  |  |  |  |  |  |  |  |  |  |  |  |  |  |  |  |  |  |  | Plant response rating, Barnyardgrass [1, 15]: 20; Barnyardgrass plant response rating [1, 16]: 80; Barnyardgrass plant response rating [1, 17]: 20; Plant response rating, Barnyardgrass [1, 18]: 50; Plant response rating (0 = no effect, 100 = complete control), Johnsongrass ([2]; 62 g ai/ha, preemergence): 55; Plant response rating, Johnsongrass [2, 19]: 70; Plant response rating, Johnsongrass [2, 20]: 85; Johnsongrass plant response rating [2, 21]: 90; Plant response rating (0 = no effect, 100 = complete control), Cupgrass, Woolly ([3]; 62 g ai/ha, preemergence): 0; Plant response rating, Cupgrass, Woolly [3, 19]: 0; Plant response rating, Cupgrass, Woolly [3, 20]: 35; Cupgrass, Woolly plant response rating [3, 21]: 40; Plant response rating (0 = no effect, 100 = complete control), Lambsquarters ([4]; 62 g ai/ha, preemergence): 85; Plant response rating, Lambsquarters [4, 19]: 100; Plant response rating, Lambsquarters [4, 20]: 100; Lambsquarters plant response rating [4, 21]: 100; Plant response rating, Crabgrass, Large [5, 15]: 20; Crabgrass, Large plant response rating [5, 16]: 100; Crabgrass, Large plant response rating [5, 17]: 10; Plant response rating, Crabgrass, Large [5, 18]: 70
